The source of these data is patent US5981521A, “Tetrahydroisoquinoline derivatives as LHRH antagonists” (Abbott Laboratories, priority 1998, dated 1999).

Structures can show the parent of a compound that is named as a salt.

One may read the Ki as the dissociation constant of the complex between target and ligand, obtained from inhibition or displacement. A lower Ki goes with higher affinity.

For this test, the target named is T1, LHRH rat pituitary receptor (Rattus norvegicus, UniProt P30969).
T1 construct: from tissue; host or cells: rat pituitary
T1 sequence (P30969 1-327): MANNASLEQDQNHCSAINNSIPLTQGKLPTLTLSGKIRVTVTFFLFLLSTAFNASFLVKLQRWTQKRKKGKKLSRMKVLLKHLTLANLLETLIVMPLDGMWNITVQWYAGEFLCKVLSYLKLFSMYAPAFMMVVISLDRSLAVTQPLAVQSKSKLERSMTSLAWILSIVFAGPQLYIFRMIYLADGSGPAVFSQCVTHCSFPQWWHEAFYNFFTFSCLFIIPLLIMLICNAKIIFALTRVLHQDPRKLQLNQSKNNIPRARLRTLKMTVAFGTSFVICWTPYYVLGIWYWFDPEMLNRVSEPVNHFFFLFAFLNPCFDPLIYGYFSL
The experiment in a line: LHRH rat pituitary receptor binding. The protocol: Representative compounds of the present invention were evaluated in vitro for potency against for LHRH rat pituitary receptor binding [pK, ]. Methods for the assay procedures are 10 described in […] al. J Med. Chem., 32: 2340-2344 (1989). Values of pK, are the negative logarithms of the equilibrium dissociation constant of the particular antagonist test compound for the receptor binding. […] Leuprolide LHRH agonist, disclosed and claimed in U.S. Pat. No. 4,005, 063, has the structure 5-oxo-[…].

[1] abbreviates: Table 1: compounds of formula (V), by n and R1.
Where [2] appears, read: Table 2: compounds of formula (VI), by isoquinolinyl moiety R.

As to `COc1cc2c(cc1OC)C(C)N(CCC(CCCNC(=O)CCc1ccc(F)cc1)(c1ccccc1)c1ccccc1)CC2` (centres unmarked) [Example 44], affinity under setting [1] was put at a Ki of 70.8 nM. This counts as double-digit nanomolar.

`COc1cc2c(cc1OC)C(C)N(CCCC(CCCNC(=O)CCc1ccc(Cl)cc1)(c1ccccc1)c1ccccc1)CC2` (centres unmarked) [Example 79, 7-[N-3-(4-chlorophenol)propionyl]amino-1-[N-(I .2.3,4-tetrahydro-1-methyl-6,7-dimethoxyisoguinolinyl)1-4,4-diphenylheptane hydrochloride] had a Ki (Table 3: compounds of formula (VII), by substituent R') of 0.195 nM. This counts as sub-nanomolar.

`COc1cc2c(cc1OC)C(Cc1ccc(N)cc1)N(CCCC(CCCNC(=O)CCc1ccc(F)cc1)(c1ccccc1)c1ccccc1)CC2` (centres unmarked) [Example 21, 7-[N-3-(4-Fluorophenol)propionyl]amino-1-F(N-[1,2,3,4-tetrahydro-1-(4-aminobenzyl)-6,7-dimethoxyisoguinolinyl)1-4.4-diphenylheptanedihydrochloride] showed a Ki under setting [1] of 0.0724 nM.

Take “7-[N-3-(4-Fluorophenyl)propionyl]-1-[N-(1,2,3,4-tetrahydro-1-(4-N-phthalimidomethyl)cyclohexyl-6,7-dimethoxyisoguinolinyl)1-4.4-diphenylheptane hydrochloride [Example 36]”: the pKI under setting [1] came to 8.27.

Under setting [1], `COc1cc2c(cc1OC)C(c1ccc(N)cc1)N(CCCC(CCCNC(=O)CCc1ccc(F)cc1)(c1ccccc1)c1ccccc1)CC2` (centres unmarked) [Example 15, 7-[N-3-(4-Fluorophenyl)propionyl]amino-1-[N-(1.2.3 .4-tetrahydro-1-(4-aminophenyl)-6,7-dimethoxyisoguinolinyl)1-4.4-diphenylheptanedihydrochloride] had a Ki of 2.95 nM.

As to `COc1cc2c(cc1OC)C(CNC(C)C)N(CCCC(CCCNC(=O)CCc1ccc(F)cc1)(c1ccccc1)c1ccccc1)CC2` (centres unmarked) [Example 23, 7-[N-3-(4-Fluorophenyl)propionyll-1-[N-(1,2,3,4-tetrahydro-1-(N-isopropylaminomethyl)-6,7-dimethoxyisoguinolinyl)]-4,4-diphenylheptanedihydrochloride], the pKI under setting [1] came out at 8.91.

The compound `COc1cc2c(cc1OC)C(Cc1ccc(Cl)cc1)N(CCCC(CCCNC(=O)CCc1ccc(F)cc1)(c1ccccc1)c1ccccc1)CC2` (centres unmarked) [Example 18, 7-[N-3-(4-Fluorophenyl)propionyl]amino-1-[N-(1,2,3,4-tetrahydro-1-(4-chlorobenzyl)-6,7-dimethoxyisoguinolinyl)1-4.4-diphenylheptane hydrochloride] showed a Ki under setting [1] of 38.9 nM.

Take `COc1ccc2c(c1)C(C)N(CCCC(CCCNC(=O)CCc1ccc(F)cc1)(c1ccccc1)c1ccccc1)CC2` (centres unmarked) [Example 51, 7-[N-3-(4-Fluorophenylpropionyl]-1-FA-f 1,2,3,4-tetrahydro-1-methyl-7-methoxy-isoguinolinyl)1-4.4-diphen%-lheptanehydrochloride]: the Ki under setting [2] is 1.05 nM.

The compound `COc1cc2c(cc1OC)C(CCc1ccccc1)N(CCCC(CCCNC(=O)CCc1ccc(F)cc1)(c1ccccc1)c1ccccc1)CC2` (centres unmarked) [Example 20, 7-[N-3-(4-Fluorophenyl)propionyl]amino-1-[N-(1,2,3,4-tetrahydro-1-phenethyl-6,7-dimethoxy - isoguinolinyl)]-4,4-diphenylheptane hydrochloride] gave a Ki under setting [1] of 25.1 nM.

`CC1c2ccccc2CCN1CCCC(CCCNC(=O)CCc1ccc(F)cc1)(c1ccccc1)c1ccccc1` (centres unmarked) [Example 47, 7-[N-3-(4-Fluorophenyl)propionyl]-1-[N-(1,2,3,4-tetrahydro-1-methylisoquinolinyl)1-4.4-diphenylheptane hydrochloride] gave an inhibition constant (Ki) under setting [2] of 14.5 nM.

Consider `CC1c2cc(F)ccc2CCN1CCCC(CCCNC(=O)CCc1ccc(F)cc1)(c1ccccc1)c1ccccc1` (stereo not drawn) [Example 53, 7-[N-3-(4-Fluorophenyy)propionyl]-1-[N-(1,2,3,4-tetrahydro-1-methyl-7-fluoro-isoquinolinyl)l-4,4-diphenylheptane hydrochloride], for which affinity under setting [2] was put at a Ki of 14.5 nM.
